Among the test systems are M14 melanoma; DMS 273 small cell lung; HL-60(TB) leukemia; SF-268 CNS; EKVX NSCLC; SF-539 CNS; KM20L2 colon; SK-OV-3 ovarian; SNB-78 CNS; LOX IMVI melanoma; UACC-62 melanoma; UO-31 renal; DMS 114 small cell lung; LXFL 529 NSCLC; RXF-631 renal; IGROV1 ovarian; HOP-92 NSCLC; HOP-62 NSCLC; A498 renal; SR leukemia.
Common to all, as to assay: DTP human tumour cell line panel, 48 h

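Test compounds were applied to cells in 96-well plates for 48 hours at 5 doses. TGI: total growth inhibition.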

The record followed here is PubChem BioAssay (NCI).

For orientation: TGI means the concentration at which net growth stops. Read a low TGI as more potent growth arrest. As to `COC(=O)CN(C)P(=O)(N1CC1)N1CC1`, the TGI in the assay with M14 melanoma, in the assay on DMS 273 small cell lung, with HL-60(TB) leukemia, with SF-268 CNS, in the assay with EKVX NSCLC and in the assay on SF-539 CNS was > 100 µM throughout. In addition, the TGI with KM20L2 colon, in the assay on SK-OV-3 ovarian, in the assay with SNB-78 CNS, in the assay with LOX IMVI melanoma, in the assay with UACC-62 melanoma and in the assay on UO-31 renal was > 100 µM in each case. Besides, the TGI in the assay with DMS 114 small cell lung, in the assay on LXFL 529 NSCLC, in the assay on RXF-631 renal and in the assay with IGROV1 ovarian was > 100 µM in each case.
With `COc1cc2c3c(c4cc(OC)c(OC)cc4c2cc1OC)C(=O)C1CCC(=O)N1C3` (stereo not drawn), the TGI in the assay with HL-60(TB) leukemia was > 100 µM; with SF-268 CNS, > 100 µM; in the assay on SF-539 CNS, 39.8 µM; in the assay with SK-OV-3 ovarian, 61.1 µM; in the assay with HOP-92 NSCLC it was 82.2 µM; in the assay on LOX IMVI melanoma, > 100 µM. The total growth inhibition concentration (TGI) is > 100 µM with UACC-62 melanoma, 59.3 µM with HOP-62 NSCLC, 88.5 µM in the assay on IGROV1 ovarian and > 100 µM in the assay on A498 renal.
In the case of `Cc1cccc(C(C)C)c1NC(=O)CC1Sc2ccccc2NC1=O` (stereo not drawn), the TGI in the assay with M14 melanoma, in the assay with DMS 273 small cell lung, in the assay on HL-60(TB) leukemia, in the assay with SF-268 CNS, in the assay with EKVX NSCLC and with SR leukemia was > 100 µM in each case. For the same compound, the TGI with SF-539 CNS, in the assay with KM20L2 colon, in the assay with SK-OV-3 ovarian, in the assay with HOP-92 NSCLC, with LOX IMVI melanoma and with UACC-62 melanoma was > 100 µM throughout. Moreover, the TGI in the assay with UO-31 renal is > 100 µM; in the assay on DMS 114 small cell lung, 85 µM; in the assay on HOP-62 NSCLC it was > 100 µM; in the assay on LXFL 529 NSCLC, > 100 µM; in the assay on RXF-631 renal it was > 100 µM; in the assay on IGROV1 ovarian it was > 100 µM. The TGI in the assay on A498 renal was > 100 µM.
On to `CC(=O)OC1(C#N)CC2OC1C1C2N=NN1C(=O)OC(C)(C)C` (stereo not drawn), for which the TGI was 46.6 µM with M14 melanoma; 73.8 µM in the assay on DMS 273 small cell lung; > 100 µM in the assay on SF-268 CNS; > 100 µM in the assay on EKVX NSCLC; > 100 µM in the assay with SR leukemia; 52.7 µM in the assay on SF-539 CNS. Moreover, the concentration for total growth inhibition (TGI) was > 100 µM in the assay on KM20L2 colon; 73.2 µM in the assay on SNB-78 CNS; 75.3 µM with HOP-92 NSCLC; 69.4 µM in the assay on LOX IMVI melanoma; 45.9 µM with UACC-62 melanoma; > 100 µM in the assay with UO-31 renal. The TGI in the assay with DMS 114 small cell lung is 65.6 µM; in the assay with HOP-62 NSCLC, > 100 µM; in the assay with LXFL 529 NSCLC it was > 100 µM; with RXF-631 renal, > 100 µM; in the assay on IGROV1 ovarian, > 100 µM.
With `CCOC(=O)c1csc(NC(=O)CN2CCN(C)CC2)n1`, the TGI in the assay on M14 melanoma, in the assay with HL-60(TB) leukemia, in the assay with EKVX NSCLC, with SR leukemia, in the assay with SK-OV-3 ovarian and in the assay with HOP-92 NSCLC was > 100 µM throughout. Moreover, the TGI in the assay on LOX IMVI melanoma, with UACC-62 melanoma, in the assay on UO-31 renal, in the assay on HOP-62 NSCLC, in the assay on IGROV1 ovarian and in the assay on A498 renal was > 100 µM in each case.
In the case of `O=C(CC(=O)c1ccccc1)CC(O)(c1ccccc1)c1ccccc1`, the TGI is 14.9 µM in the assay with M14 melanoma; 6.54 µM with HL-60(TB) leukemia; 24.6 µM in the assay with SF-268 CNS; > 100 µM with SR leukemia; 19.5 µM in the assay with KM20L2 colon; 76 µM in the assay on SK-OV-3 ovarian. Moreover, the TGI was 81 µM in the assay with SNB-78 CNS; 19.5 µM in the assay with HOP-92 NSCLC; 14.9 µM with UACC-62 melanoma; 18.4 µM with UO-31 renal; 5.73 µM in the assay with DMS 114 small cell lung; 12 µM in the assay on HOP-62 NSCLC. Besides, the TGI worked out at 17 µM in the assay with LXFL 529 NSCLC and 25.1 µM in the assay on A498 renal.
